A short description of the data set: gradient 5% acetonitrile 3 min, to 50% in 2 min, to 85% in 15 min, held 3 min, 100 µL/min. The settings on record: column: Zorbax Extend-C18 2.1 x 50 mm; eluents: water / acetonitrile, 0.1% formic acid. Put shortly: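 Each retention time is based on an adduct peak selected computationally and verified by manual inspection. Measurements used HPLC–quadrupole time-of-flight mass spectrometry in positive and negative ionization mode on mixtures of ~100 pure standards. Chromatography ran on a Zorbax Extend-C18 column (2.1 × 50 mm, 1.8 μm) at 100 μL/min with water and acetonitrile, each containing 0.1% formic acid, and dead and dwell volumes of 40 μL and 900 μL.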
For `Cc1ccccc1S(=O)(=O)N1CCC(c2nc(C(=O)N(C)C)c(C)o2)CC1`, the RP-LC retention time worked out at 818 s.
Molecule `Cc1[nH]nc(-c2c(C)sc(C)c2S(=O)(=O)N2CCc3ccccc3C2)c1C` gave an RP-LC retention time of 975 s.
In the case of `Cn1c(=O)sc2cc(S(=O)(=O)N3CCC(C(=O)Nc4ccc(F)cc4)CC3)ccc21` it was 854 s; in that of `CC1CCc2c(sc(NC(=O)Cc3ccc(Cl)s3)c2C(N)=O)C1` (configuration not stated), 1000 s.
In turn, `COc1ccc(NC(=O)NC2CCN(c3ccc(F)cc3)C2=O)cc1F` (configuration not stated) gave an RP-LC retention time of 781 s.
Regarding `CCC(=O)Nc1ccc(CCc2nc3ccc(C(=O)NCC4CCCO4)cc3[nH]2)cc1` (configuration not stated), the RP-LC retention time turned out to be 592 s.
As for `COCCCNC(=O)CN1C(=O)C2CCCCN2c2ccc(C(=O)N3CCCC3)cc21` (configuration not stated), the RP-LC retention time worked out at 696 s.
`Cc1ccsc1CN1CC(Oc2ccc(-c3noc(C4CCOCC4)n3)cc2)C1` yielded an RP-LC retention time of 690 s.
For the molecule `COc1ccc(CCc2nc3nccc(-c4ccsc4)n3n2)cc1`, the RP-LC retention time was 946 s.
Take `CCS(=O)(=O)N1CC(=O)N(c2cc(C)ccc2C)C(C)(C(=O)NCc2ccccc2)C1` (configuration not stated): the RP-LC retention time stood at 807 s.
With `O=C(CCc1conc1-c1ccc(F)cc1)NCC1CCCCC1`, the RP-LC retention time is 996 s.
The molecule `COC(=O)c1cc2c(=O)n(Cc3ccccn3)ccc2nc1C` showed an RP-LC retention time of 638 s.
`Cc1ccc(C)c(NS(=O)(=O)c2cc(-c3[nH]ncc3C(=O)N3CCOCC3)oc2C)c1`: the RP-LC retention time was 701 s.
The figure for `COc1ccc(NC(=O)Nc2ccc(C)n(CC(=O)O)c2=O)cc1` is 668 s; for `CCc1cccc(CC)c1NC(=O)c1cccc(OC)c1` it is 875 s; for `Cc1c(C(=O)C(=O)Nc2cccc(F)c2)c2ccccc2n1C` it is 960 s.
`Cc1cc2nc(Nc3nc(SCc4ccc(Cl)cc4)cc(=O)[nH]3)nc(C)c2cc1C` yielded an RP-LC retention time of 1110 s.
In the case of `Cc1ccc(S(=O)(=O)N2C[C@@H]3C[C@H](NC(=O)c4ccccc4)[C@H]2C3)cc1Cl` it was 969 s.
For the molecule `Cc1ccc(Cn2c(=O)n(CCNC(=O)C3CCCC3)c3ncccc32)cc1`, the RP-LC retention time came out at 836 s.
Molecule `COc1ccccc1NC(=O)NCCc1nc2cccnc2n1C1CCCC1` displayed an RP-LC retention time of 728 s.
`CCOc1ccc(C(=O)NC2CCN(c3cc(-c4ccc(OC)cc4)[nH]n3)C2)cc1OCC` (configuration not stated) returned an RP-LC retention time of 742 s.
In turn, `COCCn1cc(CCNC(=O)Nc2cccc(Br)c2)c2cccnc21` returned an RP-LC retention time of 783 s.
`COc1cccc(-n2c(N3CCCC(C(=O)NC4CC4)C3)nc3ccsc3c2=O)c1` (configuration not stated) came in with an RP-LC retention time of 710 s.
On to `CCC1Oc2ccc(S(=O)(=O)N3CCC(C(=O)NC4CCC(C)CC4)CC3)cc2NC1=O` (configuration not stated), for which the RP-LC retention time was found to be 904 s.
`NC(=O)C1CCN(C(=O)c2nnn(-c3ccccc3Cl)c2-c2ccncc2)CC1` showed an RP-LC retention time of 603 s.
As for `O=C(c1ccc(OCC2CCCN2C(=O)C2CCCC2)cc1)N1CCOCC1` (configuration not stated), the RP-LC retention time is 750 s.
With `CCN(CC)c1nc2cc(C(=O)NCC3CC3)ccc2c(=O)n1Cc1ccccc1`, the RP-LC retention time amounted to 1020 s.
In the case of `Cc1ccc(-c2nc3nc(C)cc(C)n3c2Nc2c(C)cccc2C)cc1` it was 806 s; in that of `CC1=C(c2ccccc2)S(=O)(=O)N=C1N1CCCN(C(=O)COc2ccccc2)CC1`, 836 s; in that of `O=C(CN1C(=O)CSc2ccc(C(=O)N3CCCCC3)cc21)NCCN1CCCCC1`, 612 s.
Take `CC1CCN(C(=O)CSc2nnc(-c3ccccc3F)o2)CC1`: the RP-LC retention time came to 901 s.
The molecule `CCOc1ccc(CNc2nc3ccncc3n(CC)c2=O)cc1OC` yielded an RP-LC retention time of 618 s.

For the origin of these results see the METLIN SMRT retention time set (Domingo-Almenara et al. 2019).
